In this assay the target is T1, protein tyrosine phosphatase 1B (PTP1B) (Homo sapiens, UniProt P18031).
T1 construct: gene PTPN1; Recombinant human GST-PTP1B (hGST-PTP1B)
T1 sequence (P18031 1-435): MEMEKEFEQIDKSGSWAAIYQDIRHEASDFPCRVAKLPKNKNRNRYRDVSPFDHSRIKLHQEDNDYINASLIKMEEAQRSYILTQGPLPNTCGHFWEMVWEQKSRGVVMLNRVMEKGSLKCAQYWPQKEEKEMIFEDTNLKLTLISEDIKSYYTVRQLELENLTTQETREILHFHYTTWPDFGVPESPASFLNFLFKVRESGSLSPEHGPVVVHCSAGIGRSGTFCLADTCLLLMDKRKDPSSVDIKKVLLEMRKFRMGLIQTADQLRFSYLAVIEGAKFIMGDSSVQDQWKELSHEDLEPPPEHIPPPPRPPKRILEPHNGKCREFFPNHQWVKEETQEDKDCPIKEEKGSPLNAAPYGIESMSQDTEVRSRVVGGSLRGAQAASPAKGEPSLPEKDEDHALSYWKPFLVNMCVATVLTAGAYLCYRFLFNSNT
The assay is described as follows: pNPP hydrolysis assay at […] nm with recombinant GST-PTP1B. It counts as biochemical.

The values below come from publication PMC3640384, “HPN, a Synthetic Analogue of Bromophenol from Red Alga Rhodomela confervoides: Synthesis and Anti-Diabetic Effects in C57BL/KsJ-db/db Mice” (Marine Drugs, 2013).

With `CC(C)OCc1cc(O)c(O)c(Br)c1Cc1cc(O)c(O)c(Br)c1Br` [HPN, 3,4-dibromo-5-(2-bromo-3,4-dihydroxy-6-(isopropoxymethyl)benzyl)benzene-1,2-diol], the IC50 came to 630 nM.
